Measured values taken from patent publication US10654834B2 (Venenum Biodesign, LLC, priority 2016, dated 2020).

Legend:
human TGR5 receptor = target: T1, human TGR5 receptor (Homo sapiens, UniProt Q8TDU6); assay: Human TGR5 cAMP production assay (hTGR5-CHO cells, DiscoveRx cAMP XS+ kit); type: cell-based; conditions: luminescent cAMP assay, read-out: Human TGR5 Lum. cAMP Activity (EC50)
T1 construct: host or cells: CHO-K1 (hTGR5-CHO)
T1 sequence (Q8TDU6 1-330): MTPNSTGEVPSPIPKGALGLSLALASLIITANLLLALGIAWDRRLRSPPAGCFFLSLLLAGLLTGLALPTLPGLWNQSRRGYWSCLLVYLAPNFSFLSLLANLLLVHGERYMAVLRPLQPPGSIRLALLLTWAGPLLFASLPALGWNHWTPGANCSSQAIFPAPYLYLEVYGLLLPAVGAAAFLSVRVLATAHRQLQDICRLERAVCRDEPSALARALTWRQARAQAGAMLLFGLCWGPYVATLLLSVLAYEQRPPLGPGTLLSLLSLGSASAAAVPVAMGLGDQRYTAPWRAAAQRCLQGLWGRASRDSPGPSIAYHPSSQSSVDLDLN
Summary of the method: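 EC50 values come from luminescent enzyme-complementation cAMP detection, read after overnight incubation. Beforehand, hTGR5-expressing CHO-K1 cells with IBMX and anti-cAMP antibody were exposed 1 h at room temperature to serially diluted (half-log) compounds.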

mouse TGR5 receptor = target: T2, mouse TGR5 receptor (Mus musculus, UniProt Q80SS6); assay: Mouse TGR5 HTRF cAMP production assay (HEK293-EBNA cells, Cisbio cAMP HiRange kit); type: cell-based; conditions: HEK293-EBNA cells overexpressing mouse TGR5, HTRF cAMP assay
T2 construct: host or cells: HEK293-EBNA (293 c18, ATCC CRL10852)
T2 sequence (Q80SS6 1-329): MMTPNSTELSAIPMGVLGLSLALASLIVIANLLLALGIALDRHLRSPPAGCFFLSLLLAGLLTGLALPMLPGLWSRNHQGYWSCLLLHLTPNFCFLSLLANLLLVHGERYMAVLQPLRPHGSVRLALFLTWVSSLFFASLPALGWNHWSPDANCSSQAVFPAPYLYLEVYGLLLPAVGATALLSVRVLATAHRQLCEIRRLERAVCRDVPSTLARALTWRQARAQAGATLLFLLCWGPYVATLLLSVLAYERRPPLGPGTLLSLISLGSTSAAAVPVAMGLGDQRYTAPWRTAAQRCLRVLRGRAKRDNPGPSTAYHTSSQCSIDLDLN
Summary of the method: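 cAMP accumulation was read by competitive HTRF after 1 h room-temperature compound treatment, with a further 1 h conjugate incubation. Cells were mouse TGR5-overexpressing HEK293-EBNA in serum-free DMEM plus 500 μM IBMX. Compounds ran as 12-point half-log series in duplicate, and EC50 values were reported.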

Compound | EC50 (human TGR5 receptor) | EC50 (mouse TGR5 receptor)
N#CCCN1CCN(c2cc(N3CCC[C@@H](C(=O)NCCc4ccc(C#N)cc4)C3)nc(C(F)(F)F)n2)CC1 [Compound 316, (R)-1-(6-(4-(2-cyanoethyl)piperazin-1-yl)-2-(trifluoromethyl)pyrimidin-4-yl)-N-(4-cyanophenethyl)piperidine-3-carboxamide] | < 100 nM | < 100 nM
N#Cc1ccc(CCNC(=O)[C@@H]2CCCN2c2cc(-c3ccc(CCNC(=O)NCCS(=O)(=O)O)cc3)nc(C(F)(F)F)n2)cc1 [Compound 194, (S)-2-(3-(4-(6-(2-((4-cyanophenethyl)carbamoyl)pyrrolidin-1-yl)-2-(trifluoromethyl)pyrimidin-4-yl)phenethyl)ureido)ethanesulfonic acid] | 100 to 999 nM | < 100 nM
N#Cc1ccc(CCNC(=O)[C@@H]2CCCN2c2cc(-c3ccc(CCNC(=O)NCCCS(=O)(=O)O)cc3)nc(C(F)(F)F)n2)cc1 [Compound 195, (S)-3-(3-(4-(6-(2-((4-cyanophenethyl)carbamoyl)pyrrolidin-1-yl)-2-(trifluoromethyl)pyrimidin-4-yl)phenethyl)ureido)propane-1-sulfonic acid] | 100 to 999 nM | < 100 nM
O=C(NCCc1ccc(C(F)(F)F)cc1)[C@@H]1CCN1c1cc(N2CCC(CCCC3CCNCC3)CC2)nc(C(F)(F)F)n1 [Compound 275, (S)-1-(6-(4-(3-(piperidin-4-yl)propyl)piperidin-1-yl)-2-(trifluoromethyl)pyrimidin-4-yl)-N-(4-(trifluoromethyl)phenethyl)azetidine-2-carboxamide] | < 100 nM | 100 to 999 nM
N#Cc1ccc(CCNC(=O)[C@@H]2CCCN2c2cc(N3CCC(CCCC(=O)NCCNc4nccc(C(=O)O)n4)CC3)nc(C(F)(F)F)n2)cc1 [Compound 102, (S)-2-((2-(4-(1-(6-(2-((4-cyanophenethyl)carbamoyl)pyrrolidin-1-yl)-2-(trifluoromethyl)pyrimidin-4-yl)piperidin-4-yl)butanamido)ethyl)amino) pyrimidine-4-carboxylic acid] | < 100 nM | < 100 nM
COC(=O)[C@@H](N)CCCCNC(=O)NCCC1CCN(c2cc(N3CC[C@H]3C(=O)NCCc3ccc(C#N)cc3)nc(C(F)(F)F)n2)CC1 [Compound 274, (S)-methyl 2-amino-6-(3-(2-(1-(6-((S)-2-((4-cyanophenethyl)carbamoyl)azetidin-1-yl)-2-(trifluoromethyl)pyrimidin-4-yl)piperidin-4-yl)ethyl)ureido)hexanoate] | < 100 nM | < 100 nM
N#Cc1ccc(CCNC(=O)[C@@H]2CCCN2c2cc(N3CCN(CCO)CC3)nc(C(F)(F)F)n2)cc1 [Compound 31] | 100 to 999 nM | < 100 nM
COc1cc(C(F)(F)F)ccc1CCNC(=O)[C@@H]1CCN1c1cc(N2CCC(CO)CC2)nc(C(F)(F)F)n1 [Compound 237, (S)-1-(6-(4-(hydroxymethyl)piperidin-1-yl)-2-(trifluoromethyl)pyrimidin-4-yl)-N-(2-methoxy-4-(trifluoromethyl)phenethyl)azetidine-2-carboxamide] | < 100 nM | < 100 nM
N#Cc1ccc(CCNC(=O)[C@@H]2CCCN2c2cc(-c3ccc(CCN)cc3)nc(C(F)(F)F)n2)cc1 [Compound 184, (S)-1-(6-(4-(2-aminoethyl)phenyl)-2-(trifluoromethyl)pyrimidin-4-yl)-N-(4-cyanophenethyl)pyrrolidine-2-carboxamide] | 100 to 999 nM | 100 to 999 nM
N#Cc1ccc(CCNC(=O)[C@@H]2CCCN2c2cc(-c3ccc(COCC(=O)NCS(=O)(=O)O)cc3)cc(C(F)(F)F)n2)cc1 [Compound 209, (S)-(2-((4-(2-(2-((4-cyanophenethyl)carbamoyl)pyrrolidin-1-yl)-6-(trifluoromethyl)pyridin-4-yl)benzyl)oxy)acetamido)methanesulfonic acid] | < 100 nM | < 100 nM
O=C(O)CCNC(=O)NCCC1CCN(c2cc(N3CCC[C@H]3C(=O)NCCc3ccc(-c4ccccn4)cc3)nc(C(F)(F)F)n2)CC1 [Compound 378, (S)-3-(3-(2-(1-(6-(2-((4-(pyridin-2-yl)phenethyl)carbamoyl)pyrrolidin-1-yl)-2-(trifluoromethyl)pyrimidin-4-yl)piperidin-4-yl)ethyl)ureido)propanoic acid] | 1000 to 30000 nM | 1000 to 30000 nM
COC(=O)[C@H](CCC[N+](C)(C)C)NC(=O)CCCC1CCN(c2cc(N3CCC[C@H]3C(=O)NCCc3ccc(C#N)cc3)nc(C(F)(F)F)n2)CC1 [Compound 65, (S)-4-(4-(1-(6-((S)-2-((4-cyanophenethyl)carbamoyl)pyrrolidin-1-yl)-2-(trifluoromethyl)pyrimidin-4-yl)piperidin-4-yl)butanamido)-5-methoxy-N,N,N-trimethyl-5-oxopentan-1-aminium] | < 100 nM | < 100 nM
O=C(O)C(=O)N1CCN(c2cc(N3CCC[C@@H](C(=O)NCCc4ccc(C(F)(F)F)cc4)C3)nc(C(F)(F)F)n2)CC1 [Compound 340, (R)-2-oxo-2-(4-(2-(trifluoromethyl)-6-(3-((4-(trifluoromethyl)phenethyl)-carbamoyl)piperidin-1-yl)pyrimidin-4-yl)piperazin-1-yl)acetic acid] | 100 to 999 nM | < 100 nM
N#Cc1ccc(CCNC(=O)[C@@H]2CCN2c2cc(N3CCC(CCCC(=O)N[C@@H](CCCNC(=N)N)C(=O)O)CC3)nc(C(F)(F)F)n2)cc1 [Compound 251, (S)-2-(4-(1-(6-((S)-2-((4-cyanophenethyl)carbamoyl)azetidin-1-yl)-2-(trifluoromethyl)pyrimidin-4-yl)piperidin-4-yl)butanamido)-5-guanidinopentanoic acid] | < 100 nM | < 100 nM
N#Cc1ccc(CCNC(=O)[C@@H]2CCCN(c3cc(N4CCC(CCN)CC4)nc(C(F)(F)F)n3)C2)cc1 [Compound 345, (R)-1-(6-(4-(2-aminoethyl)piperidin-1-yl)-2-(trifluoromethyl)pyrimidin-4-yl)-N-(4-cyanophenethyl)piperidine-3-carboxamide] | < 100 nM | < 100 nM
N#Cc1ccc(CCNC(=O)[C@@H]2CCCN2c2cc(-c3csc(CO)c3)nc(C(F)(F)F)n2)cc1 [Compound 182, (S)—N-(4-cyanophenethyl)-1-(6-(5-(hydroxymethyl)thiophen-3-yl)-2-(trifluoromethyl)pyrimidin-4-yl)pyrrolidine-2-carboxamide] | 100 to 999 nM | < 100 nM
COC(=O)c1ccc(S(=O)(=O)NCCOCCNC(=O)CCCC2CCN(c3cc(N4CC[C@H]4C(=O)NCCc4ccc(C#N)cc4)nc(C(F)(F)F)n3)CC2)cc1 [Compound 290, (S)-methyl 4-(N-(2-(2-(4-(1-(6-(2-((4-cyanophenethyl)carbamoyl)azetidin-1-yl)-2-(trifluoromethyl)pyrimidin-4-yl)piperidin-4-yl)butanamido)ethoxy)ethyl)-sulfamoyl)benzoate] | 100 to 999 nM | < 100 nM
CN(CCS(=O)(=O)O)C(=O)CCC1CCN(c2cc(N3CC[C@H]3C(=O)NCCc3ccc(C(F)(F)F)cc3)nc(C(F)(F)F)n2)CC1 [Compound 252, (S)-2-(N-methyl-3-(1-(2-(trifluoromethyl)-6-(2-((4-(trifluoromethyl)phenethyl)carbamoyl)azetidin-1-yl)pyrimidin-4-yl)piperidin-4-yl)propanamido)ethanesulfonic acid] | < 100 nM | < 100 nM
